Reference: ChEMBL document CHEMBL4011599, “Coumarin sulfonates: New alkaline phosphatase inhibitors; in vitro and in silico studies” (Eur J Med Chem, 2017)

How the values were obtained:
[1] = molecular target: T1, Alkaline phosphatase, tissue-nonspecific isozyme (Homo sapiens, UniProt P05186); assay: Inhibition of human TNAP using CDP-star as substrate pretreated for 10 mins followed by substrate addition measured after 10 mins by […] method
T1 sequence (P05186 whole entry): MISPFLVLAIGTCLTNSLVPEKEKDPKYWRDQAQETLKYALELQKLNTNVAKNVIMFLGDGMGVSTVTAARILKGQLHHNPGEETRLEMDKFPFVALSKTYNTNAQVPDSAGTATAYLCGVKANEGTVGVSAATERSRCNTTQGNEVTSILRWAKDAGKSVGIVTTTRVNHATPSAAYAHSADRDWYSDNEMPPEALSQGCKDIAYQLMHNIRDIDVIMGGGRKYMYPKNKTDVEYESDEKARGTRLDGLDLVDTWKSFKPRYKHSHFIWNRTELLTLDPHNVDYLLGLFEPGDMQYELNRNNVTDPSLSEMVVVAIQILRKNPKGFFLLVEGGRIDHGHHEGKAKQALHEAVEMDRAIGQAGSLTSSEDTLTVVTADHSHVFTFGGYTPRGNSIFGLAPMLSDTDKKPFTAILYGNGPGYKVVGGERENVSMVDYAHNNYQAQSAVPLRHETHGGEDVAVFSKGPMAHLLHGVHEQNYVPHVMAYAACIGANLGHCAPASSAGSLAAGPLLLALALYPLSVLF

[2] = molecular target: T2, Intestinal-type alkaline phosphatase (Homo sapiens, UniProt P09923); assay: Inhibition of human IAP using CDP-star as substrate pretreated for 10 mins followed by substrate addition measured after 10 mins by […] method
Target sequence in this assay (P09923 whole entry): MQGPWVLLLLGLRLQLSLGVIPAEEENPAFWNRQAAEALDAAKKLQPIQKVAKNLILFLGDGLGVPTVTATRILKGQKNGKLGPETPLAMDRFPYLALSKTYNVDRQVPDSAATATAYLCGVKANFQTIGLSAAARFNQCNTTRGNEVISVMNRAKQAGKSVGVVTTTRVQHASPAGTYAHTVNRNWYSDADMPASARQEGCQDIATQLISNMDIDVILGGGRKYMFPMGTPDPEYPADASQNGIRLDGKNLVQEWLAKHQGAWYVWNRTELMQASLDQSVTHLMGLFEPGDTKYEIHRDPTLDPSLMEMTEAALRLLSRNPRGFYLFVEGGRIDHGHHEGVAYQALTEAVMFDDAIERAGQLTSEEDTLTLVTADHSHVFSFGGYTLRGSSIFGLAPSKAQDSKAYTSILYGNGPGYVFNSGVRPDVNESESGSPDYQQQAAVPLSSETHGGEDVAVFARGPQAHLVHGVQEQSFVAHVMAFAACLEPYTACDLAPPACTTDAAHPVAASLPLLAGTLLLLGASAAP

[3] = molecular target: T2, Intestinal-type alkaline phosphatase; assay: Potency index, ratio of levamisole IC50 to compound IC50 for human IAP
Target sequence in this assay (P09923 20-503 limits assumed): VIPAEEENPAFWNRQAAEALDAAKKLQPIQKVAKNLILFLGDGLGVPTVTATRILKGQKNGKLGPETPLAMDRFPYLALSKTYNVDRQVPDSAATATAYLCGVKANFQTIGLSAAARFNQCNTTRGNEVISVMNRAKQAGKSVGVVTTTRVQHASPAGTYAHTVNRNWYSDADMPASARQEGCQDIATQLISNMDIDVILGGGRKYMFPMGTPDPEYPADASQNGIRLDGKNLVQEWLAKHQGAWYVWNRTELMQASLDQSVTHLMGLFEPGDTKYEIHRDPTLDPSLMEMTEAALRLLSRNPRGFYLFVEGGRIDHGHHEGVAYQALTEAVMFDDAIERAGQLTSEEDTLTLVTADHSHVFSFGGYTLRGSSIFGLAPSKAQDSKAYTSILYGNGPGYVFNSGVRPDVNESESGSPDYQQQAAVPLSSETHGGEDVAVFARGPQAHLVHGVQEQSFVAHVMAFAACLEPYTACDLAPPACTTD

IC50 ([1]; read-out: IC50) | IC50 ([2]; read-out: IC50) | Ratio IC50 [3] | IC50 [2] | IC50 [1] | Compound
2420 nM | 5160 nM |  |  |  | Cc1c(C#N)c(=O)oc2cc(OS(=O)(=O)c3cccc([N+](=O)[O-])c3)ccc12
2310 nM | 2720 nM |  |  |  | Cc1cc(=O)oc2cc(OS(=O)(=O)c3ccc(Cl)c([N+](=O)[O-])c3)ccc12
1640 nM | 3220 nM |  |  |  | CCCCS(=O)(=O)Oc1ccc2c(C)c(Cl)c(=O)oc2c1
920 nM | 2810 nM | 7 |  |  | CCCCCCCCS(=O)(=O)Oc1ccc2c(C)c(C#N)c(=O)oc2c1
3530 nM |  |  | Not Active |  | Cc1c(C#N)c(=O)oc2cc(OS(=O)(=O)c3ccccc3)ccc12
 | 4060 nM |  |  | Not Active | CCS(=O)(=O)Oc1ccc2c(C)c(C#N)c(=O)oc2c1
920 nM | 10300 nM |  |  |  | CCCCCCCCS(=O)(=O)Oc1ccc2c(C)cc(=O)oc2c1OS(=O)(=O)CCCCCCCC
10300 nM | 5520 nM |  |  |  | Cc1c(Cl)c(=O)oc2cc(OS(=O)(=O)c3ccccc3)ccc12
2470 nM | 2260 nM |  |  |  | Cc1c(C#N)c(=O)oc2cc(OS(=O)(=O)c3cc(Cl)ccc3Cl)ccc12
1990 nM |  |  | Not Active |  | Cc1c(C#N)c(=O)oc2cc(OS(C)(=O)=O)ccc12
 | 20200 nM |  |  |  | c1ccc([C@H]2CN3CCSC3=N2)cc1 [LEVAMISOLE]
100000 nM |  |  |  |  | N[C@@H](Cc1ccccc1)C(=O)O [PHENYLALANINE]
